{"source": "paper PMC12670765", "about": "“Employment of chia gum and tannic acid as natural products in immobilization of horseradish peroxidase for the removal of azo dye” (BMC Biotechnology, 2025)", "test_system": "T1, Horseradish peroxidase (HRP), soluble HRP", "T1 construct": "gene PRXC1A; free soluble form", "experiment": "Lineweaver-Burk; absorbance at […] nm", "format": "biochemical, Armoracia rusticana", "conditions": "soluble enzyme; co-substrate H2O2 (standard assay 8 mM); standard assay 20 mM sodium acetate pH 5.5", "data": [{"smiles": "COc1ccccc1O", "note": "[guaiacol]", "values": [{"measurement": "Km", "result": 6.9, "unit": "mM"}]}]}
